Results reported in patent US20060199978A1, “Compounds having serotonin 5-ht17 receptor antagonist activity and muscarinic m4 receptor agonist activity and their use in the treatment of psychotic disorders” (priority 2003, published 2006).
Like-named read-outs stand apart in the source and are kept apart here.

Key:
[1] = molecular target: T1, M4 muscarinic receptors (N1E-115 cells) (Mus musculus, UniProt P32211); experiment: Homogenate assay for c-AMP production (PACAP-stimulated); assay type: biochemical; details: N1E-115 homogenate; for reduction of c-AMP levels (agonist activity): PACAP 0.1 nM stimulation
T1 construct: endogenous in cells; host or cells: mouse N1E-115 cells (homogenate)
T1 sequence (P32211 1-479): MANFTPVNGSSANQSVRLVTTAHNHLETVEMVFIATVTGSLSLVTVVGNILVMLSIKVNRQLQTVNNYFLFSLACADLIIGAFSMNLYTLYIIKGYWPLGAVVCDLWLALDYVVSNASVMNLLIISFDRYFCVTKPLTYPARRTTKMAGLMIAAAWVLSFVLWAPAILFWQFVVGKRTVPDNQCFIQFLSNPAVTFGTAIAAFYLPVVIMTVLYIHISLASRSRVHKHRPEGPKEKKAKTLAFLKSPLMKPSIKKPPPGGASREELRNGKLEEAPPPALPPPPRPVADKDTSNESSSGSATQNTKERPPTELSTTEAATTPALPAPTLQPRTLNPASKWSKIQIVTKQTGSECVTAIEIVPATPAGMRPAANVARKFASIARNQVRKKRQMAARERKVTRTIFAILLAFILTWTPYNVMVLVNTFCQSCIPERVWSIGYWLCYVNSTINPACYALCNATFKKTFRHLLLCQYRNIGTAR
Description: N1E-115 cells were harvested by scraping and placed in Ribolyser tubes on dry ice. Ice cold buffer (0.5 ml) containing 50 mM Tris HCl, 0.4 mM EDTA and 0.4 mM EGTA (pH 7.4) was added to the tubes. The tubes were then placed in a Ribolyser and shaken at 4 g for 20 sec. The homogenate was then transferred to eppendorf tubes and was then centrifuged at 19,700 g for 30 min at 4° C. The pellet was resuspended in ice cold 50 mM Tris HCl (pH7.4) at a concentration of 50 mg ml^−1 wet weight of tissue. The homogenate was stored in aliquots at −70° C. Protein concentrations of the homogenates were determined using a Bio-Rad protein determination kit. The assay was carried out in a final assay volume of 120 μl containing 50 mM Tris HCl (pH7.4), 5 mM MgCl2 50 μM GTP, 200 μM ATP, 120 μM sucrose, 0.4 mM EDTA, 0.4 mM EGTA, 200 μM ascorbic acid, 20 μM papaverine, 200 μM rolipram, 10 μM vinpocetine, 10 mM phosphocreatinine, 0.4 mM DTT, 100 nM WAY 100635, 1 μM propranolol, 36 μg bacitracin, 4.8 U creatine phosphokinase, 3.6 KIU aprotinin. Homogenate (1 mgml^−1) was preincubated with the test compound in ice cold assay buffer for 10 min. PACAP (0.1 nM) was then added to the tubes. The tubes were then incubated at 30° C. for 20 min and then at 99° C. for 5 min. Levels of c-AMP in the tubes were measured using the Amersham Pharmacia Biotech Biotrak c-AMP enzymeimmunoassay kit.

[2] = test system: chronic PCP-treated rats; details: cited from earlier work
[3] = test system: chronic PCP-treated rats; experiment: LCGU (2-DG) in chronic PCP rat model
[4] = test system: apomorphine-induced deficits in PPI in rats; experiment: apomorphine-induced deficits in prepulse inhibition (PPI); assay type: in vivo, rat; details: s.c. 25 minutes prior to apomorphine 0.5 mg/kg s.c.; Wistar rats
Text: Male Wistar rats (Japan SLC Inc., Shizuoka, Japan) were used. They were housed in a light, humidity and temperature controlled environment maintained on a 12-hour/12-hour light/dark schedule (light on at 7 am) with food and water provided ad libitum. Four startle chambers (SR-LAB, San Diego Instruments, San Diego, Calif.) were placed in a sound-attenuated room. Each chamber consisted of Plexiglas cylinder 8.8 cm in diameter resting on a 12.7×20.3 cm Plexiglas stand. Acoustic stimuli and background noise were presented via a Supertweeter mounted 24 cm above the Plexiglas cylinder. Startle magnitude was detected and recorded by a microcomputer and interface assembly (San Diego Instruments) as transduced cylinder movement via a piezoelectric device mounted below the Plexiglas stand.
One day before drug testing, all rats were exposed to a “matching” startle session. Data from this session were used to assign rats to balanced groups according to their startle responses. […] Each session was approximately 20 minutes and consisted of 5 minutes of 70-dB background followed by five trial types, PULSE ALONE trial: a 120-dB 50 ms noise burst, PREPULSE trials which consisted of 20 ms noise bursts 3, 5, 10 dB above 70-dB background noise followed 100 ms later by a 120-dB 40 ms noise burst, NOSTIM trial: 100 ms of response was recorded during periods where no stimulus was presented. […]

[5] = molecular target: T2, human 5-HT7 receptors (Homo sapiens, UniProt P34969); experiment: 5-HT7 binding assay (3H-5CT); details: human 5-HT7 membrane, 3H-5CT 0.5 nM
T2 construct: purchased Euroscreen
Description: The compounds of the present invention were screened for binding affinity using membranes containing stably expressed human M4 muscarinic receptors or human 5-HT7 receptors.
Total volume 200 μl/well. Membrane concentration—human 5-HT7 membrane (purchased from Euroscreen)—6 μg/ml; ^3H-5CT 0.5 nM; Sample conc. 10 nM-300 μM; 8OH-DPAT Displacement Curve—1 nM-3 μM. The plates are incubated at 20° C. for 120 minutes in the dark to avoid any photo degradation. Membranes are harvested by rapid filtration using a vacuum manifold under 700 mbar pressure. The plates are washed 3 times with 200 ul/well of ice-cold wash buffer. Plates are dried at 40° C. for 1 hour (Higher CPMs are obtained when the filters are dried) 100 μl scintillation fluid is added to each well and cpm determined using a Microbeta scintillation counter.

[6] = molecular target: T3, human M4 muscarinic receptors (Homo sapiens, UniProt P08173); experiment: M4 binding assay (3H-NMS); details: human M4 membranes, 3H-NMS 0.25 nM
T3 construct: purchased NEN
T3 sequence (P08173 1-479): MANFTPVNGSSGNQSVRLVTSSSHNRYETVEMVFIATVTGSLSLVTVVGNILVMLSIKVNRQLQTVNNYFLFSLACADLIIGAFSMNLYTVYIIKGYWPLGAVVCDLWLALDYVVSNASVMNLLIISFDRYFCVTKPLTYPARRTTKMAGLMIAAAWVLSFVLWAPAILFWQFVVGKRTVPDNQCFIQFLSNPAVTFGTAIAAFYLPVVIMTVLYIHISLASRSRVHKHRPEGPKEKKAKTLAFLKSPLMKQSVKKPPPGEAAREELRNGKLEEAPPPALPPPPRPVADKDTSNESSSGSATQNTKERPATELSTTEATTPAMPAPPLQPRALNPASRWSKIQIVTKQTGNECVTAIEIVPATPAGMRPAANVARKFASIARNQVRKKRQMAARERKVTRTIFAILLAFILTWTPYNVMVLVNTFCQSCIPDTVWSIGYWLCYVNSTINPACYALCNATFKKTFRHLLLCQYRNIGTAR
Description: Total volume 200 μl/well. Membrane concentration—human M4 membranes (NEN)—8 μg/ml; ^3H-NMS 0.25 nM; Sample conc. 10 nM-300 μM; Atropine Displacement Curve—0.3 nM-1 μM.
The plates are incubated at 20° C. for 60 minutes in the dark to avoid any photo degradation. Membranes are harvested by rapid filtration using a vacuum manifold under 700 mbar pressure. The plates are washed 3 times with 200 ul per well of ice-cold wash buffer. Plates are dried at 40° C. for 1 hour, 100 μl scintillation fluid is added to each well and cpm determined using a Microbeta scintillation counter.

[7] = test system: amphetamine-induced hyper-activity in rats; experiment: amphetamine-induced hyperactivity in rats; assay type: in vivo, rat; details: for Line Crossings (mean ± S.E.): amphetamine control 111.6 ± 6.4
Description: Male Long Evans rats (190-280 g) in each group of five were used. Amphetamine (1.0 mg/kg i.p.) was dissolved in saline, and test compounds were dissolved or suspended in 0.5% hydroxypropylmethylcellulose (HPMC) solution. All the test compounds were injected intraperitoneally in a volume of 0.1 ml/100 g, and control rats were treated with the respective vehicle. The plastic open-field box (40×40×40(H) cm) was used to measure the locomotor activity of rats. The locomotor activity was expressed as the number of line crossings marked on the floor of the test box at 20 cm square. Individual rats were placed in the test box just after the injection of amphetamine, and were allowed to habituate there for 10 min. The line crossings were counted over 15 min thereafter. The behavioural observation was conducted on two rats simultaneously using two test boxes. Test compounds were pretreated 30 min before the injection of amphetamine.

[8] = molecular target: T4, human D2 membrane (Homo sapiens, UniProt P14416); experiment: D2 binding assay (3H-spiperone); details: 3H-spiperone 0.5 nM
T4 construct: purchased Euroscreen
Description: Total volume 200 μl/well. Membrane concentration—human D2 membrane (purchased from Euroscreen)—10 μg/ml; ^3H-spiperone 0.5 nM; Sample conc. 10 nM-300 μM; Haloperidol Displacement Curve—1 nM-10 μM. The plates are incubated at 25° C. for 60 minutes in the dark to avoid any photo degradation.
Membranes are harvested by rapid filtration using a vacuum manifold under 700 mbar pressure. The plates are washed 3 times with 200 ul/well of ice-cold wash buffer. Plates are dried at 40° C. for 1 hour (Higher CPMs are obtained when the filters are dried). 100 μl scintillation fluid is added to each well and cpm determined using a Microbeta scintillation counter.

T2 sequence (P34969 whole entry): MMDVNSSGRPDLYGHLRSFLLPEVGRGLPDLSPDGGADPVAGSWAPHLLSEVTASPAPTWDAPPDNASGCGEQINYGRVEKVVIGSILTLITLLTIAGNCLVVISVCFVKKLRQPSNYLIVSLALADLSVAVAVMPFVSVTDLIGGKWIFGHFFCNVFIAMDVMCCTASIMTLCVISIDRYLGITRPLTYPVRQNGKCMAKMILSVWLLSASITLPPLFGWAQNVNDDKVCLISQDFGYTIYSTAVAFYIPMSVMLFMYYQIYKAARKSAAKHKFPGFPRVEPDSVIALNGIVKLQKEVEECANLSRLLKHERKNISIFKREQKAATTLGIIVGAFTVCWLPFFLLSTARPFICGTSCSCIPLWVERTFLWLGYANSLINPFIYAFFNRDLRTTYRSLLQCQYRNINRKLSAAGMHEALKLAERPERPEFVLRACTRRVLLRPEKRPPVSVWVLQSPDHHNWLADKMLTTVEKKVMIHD
T4 sequence (P14416 whole entry): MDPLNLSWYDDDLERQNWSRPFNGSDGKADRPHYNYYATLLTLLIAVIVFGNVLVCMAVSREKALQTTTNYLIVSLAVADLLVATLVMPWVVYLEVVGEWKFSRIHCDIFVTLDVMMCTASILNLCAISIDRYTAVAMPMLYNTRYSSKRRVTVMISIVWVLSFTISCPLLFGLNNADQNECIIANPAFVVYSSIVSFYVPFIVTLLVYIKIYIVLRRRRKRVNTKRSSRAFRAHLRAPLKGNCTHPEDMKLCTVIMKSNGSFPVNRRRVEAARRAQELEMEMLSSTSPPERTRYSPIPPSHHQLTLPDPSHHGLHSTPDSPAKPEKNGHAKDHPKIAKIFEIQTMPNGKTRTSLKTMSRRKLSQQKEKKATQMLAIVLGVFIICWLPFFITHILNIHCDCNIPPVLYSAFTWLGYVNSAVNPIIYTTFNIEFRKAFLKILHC

For `CN1[C@@H]2CC[C@H]1C[C@@H](OC(=O)C(CO)c1ccccc1)C2` (stereo partly shown) [atropine], the “blockade of the cAMP-reducing effect of Compound 32” value [1] was “the effect was blocked”.
In the case of `O=C(CCCN1CCC(O)(c2ccc(Cl)cc2)CC1)c1ccc(F)cc1` [haloperidol], the “effect on PCP-induced hypofunction” value ([2]; auditory structures, reported previously (Cochran et al., 2003)) is listed as “reversed the PCP-induced hypofunction”, the “effect on PCP-induced metabolic hypofunction” value ([2]; prelimbic region of the prefrontal cortex, shown previously (Cochran et al., 2003)) is listed as “failed to reverse” and the “effect on PCP-induced hypofunction” value ([2]; reticular nucleus of the thalamus, shown previously (Cochran et al., 2003)) is listed as “failed to reverse”. The “effect on PCP-induced metabolic hypofunction (LCGU)” value ([3]; prelimbic region of the prefrontal cortex, chronic treatment) was “not by haloperidol or clozapine”, the “effect on PCP-reduced local glucose utilisation” value ([3]; ventral lateral lemniscus, chronic treatment (FIG. 4)) was “only partially restores the hypofunction” and the “effect on PCP-reduced local glucose utilisation” value ([3]; ventral reticular thalamic nucleus, chronic treatment (FIG. 3)) was “not by haloperidol or clozapine”.
For `Cc1cccc(S(=O)(=O)N2CCC[C@@H]2CCN2CCC(C)CC2)c1` [SB258741, R-(+)-1-(toluene-3-sulfonyl)-2-[2-(4-methylpiperidin-1-yl)ethyl]pyrrolidine], the “effect on apomorphine-induced disruption of PPI” value [4] was “Neither PTAC nor SB25871 alone affect the disruption induced by apomorphine”.
For `CCCSc1nsnc1[C@H]1CN2CCC[C@H]1C2` [PTAC, (5R,6R)6-(3-propylthio-1,2,5-thiadiazol-4-yl)-1-azabicyclo(3.2.1)octane], the “effect on apomorphine-induced disruption of PPI” value [4] was “Neither PTAC nor SB25871 alone affect the disruption induced by apomorphine”.
With `O=C1CCCN1CC#CCN1CCCC1` [oxotremorine] the “reduction of c-AMP levels (agonist activity)” value [1] was “showed the ability to reduce c-AMP levels”.
With `COc1cc2c(cc1OC)CN(/C=N/c1ccc3c(c1)C(O)CC3)CC2` (stereo not shown) [Compound 32] the Ki [5] was 400 nM, the “reduction of c-AMP levels (agonist activity)” value [1] was “able to reduce cAMP levels” and the Ki [6] was 320 nM. For the same compound, the “Line Crossings (mean ± S.E.)” value ([7]; dose 1 mg/kg, i.p.) was 98.8 ± 7.3, the “Line Crossings (mean ± S.E.)” value ([7]; dose 3 mg/kg, i.p.) was 89.6 ± 13.3 and the “Line Crossings (mean ± S.E.)” value ([7]; dose 10 mg/kg, i.p.) was 45.6 ± 8.3. The “effect on amphetamine-induced hyperactivity” value ([7]; rats, i.p., 30 min before amphetamine) was “suppressed the hyperactivity in a dose-dependent manner”, the “ED50, suppression of amphetamine-induced hyperactivity” value ([7]; rats, amphetamine 1.0 mg/kg i.p., 95% confidence limits, estimated) was 8.1 (95% confidence limits; 4.4-15) mg/kg, i.p and the Ki [8] was greater than 300000 nM.
`OC1CCc2ccc(/N=C/N3CCc4ccccc4C3)cc21` (stereo not shown) [Compound 34, 6-[(3,4-dihydro-1H-isoquinolin-2-ylmethylene)-amino]-indan-1-ol] gave a Ki [5] of 2700 nM, a Ki [6] of 2800 nM and a Ki [8] greater than 300000 nM.
